Test results published in ChEMBL document CHEMBL3112438, “Structure-based optimization of cyclopropyl urea derivatives as potent soluble epoxide hydrolase inhibitors for potential decrease of renal injury without hypotensive action” (Bioorg Med Chem, 2014).
Activity calls are given as the source filed them. The calls are words filed in the database; no cut-off is given here.

Key:
[1] = biological target: T1, Bifunctional epoxide hydrolase 2 (Homo sapiens, UniProt P34913); test: Inhibition of human recombinant soluble epoxide hydrolase after 1 hr by fluorescence assay
T1 sequence (P34913 whole entry): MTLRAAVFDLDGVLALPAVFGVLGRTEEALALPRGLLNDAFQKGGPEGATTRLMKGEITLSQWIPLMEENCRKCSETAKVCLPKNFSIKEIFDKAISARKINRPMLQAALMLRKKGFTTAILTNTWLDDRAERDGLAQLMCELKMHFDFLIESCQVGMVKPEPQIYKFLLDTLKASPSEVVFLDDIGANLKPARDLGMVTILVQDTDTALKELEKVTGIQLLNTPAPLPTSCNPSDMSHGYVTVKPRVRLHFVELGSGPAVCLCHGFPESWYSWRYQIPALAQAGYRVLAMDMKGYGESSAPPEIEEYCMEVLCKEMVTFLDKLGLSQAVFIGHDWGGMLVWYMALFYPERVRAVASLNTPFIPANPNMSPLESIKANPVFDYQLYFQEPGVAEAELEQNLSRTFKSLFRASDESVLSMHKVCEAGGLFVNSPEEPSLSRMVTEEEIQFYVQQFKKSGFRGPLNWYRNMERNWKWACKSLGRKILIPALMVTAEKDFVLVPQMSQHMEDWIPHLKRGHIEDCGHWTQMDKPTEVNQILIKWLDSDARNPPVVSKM

Liver microsome [2] = test: Intrinsic clearance in rat liver microsomes measured per mg of protein at 1 uM after 30 mins by LC/MS/MS analysis; format: ADME; conditions: 0.5 h
[3] = biological target: T2, Bifunctional epoxide hydrolase 2 (Rattus norvegicus, UniProt P80299); test: Inhibition of rat recombinant soluble epoxide hydrolase after 1 hr by fluorescence assay
T2 sequence (P80299 whole entry): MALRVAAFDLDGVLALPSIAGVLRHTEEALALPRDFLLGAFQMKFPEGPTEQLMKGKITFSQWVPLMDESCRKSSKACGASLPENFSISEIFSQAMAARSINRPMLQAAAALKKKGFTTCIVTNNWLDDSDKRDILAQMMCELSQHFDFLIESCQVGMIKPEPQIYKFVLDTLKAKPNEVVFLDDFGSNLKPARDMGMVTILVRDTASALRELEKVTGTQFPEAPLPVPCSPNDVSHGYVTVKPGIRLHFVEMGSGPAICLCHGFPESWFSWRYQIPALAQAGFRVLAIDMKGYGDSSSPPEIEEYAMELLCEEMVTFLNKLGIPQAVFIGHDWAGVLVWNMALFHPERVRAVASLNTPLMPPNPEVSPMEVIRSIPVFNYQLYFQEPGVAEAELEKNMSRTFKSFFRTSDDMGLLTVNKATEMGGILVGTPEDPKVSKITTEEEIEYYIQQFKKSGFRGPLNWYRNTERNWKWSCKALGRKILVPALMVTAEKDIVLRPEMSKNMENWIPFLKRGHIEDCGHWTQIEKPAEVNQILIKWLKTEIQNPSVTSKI

[4] = Aqueous solubility of the compound at pH 7.4 after 90 mins; format: physicochemical
Liver microsome [5] = test: Intrinsic clearance in human liver microsomes measured per mg of protein at 1 uM after 30 mins by LC/MS/MS analysis; format: ADME; conditions: 0.5 h
Rattus norvegicus [6] = test: Renoprotective activity in Sprague-Dawley rat DOCA-salt model assessed as decrease in urinary MCP-1 excretion at 100 mg/kg, po measured on day 28 post last dose; format: functional, organism-based; design: dose 100 mg/kg; conditions: Urine
Rattus norvegicus [7] = test: Bioavailability in Sprague-Dawley rat at 1 mg/kg, iv and 10 mg/kg, po; format: ADME, organism-based; conditions: in vivo
Rattus norvegicus [8] = test: Ex vivo inhibition of soluble epoxide hydrolase in po dosed Sprague-Dawley rat assessed as inhibition of 14,15-DHET production measured after 1 to 24 hrs by ELISA; format: functional, organism-based
Rattus norvegicus [9] = test: Renal toxicity in Sprague-Dawley rat DOCA-salt model assessed as effect on N-acetyl-beta-D-glucosaminidase level at 100 mg/kg, po measured on day 28 post last dose; format: organism-based; design: dose 100 mg/kg, route oral; conditions: in vivo
Rattus norvegicus [10] = test: Renoprotective activity in Sprague-Dawley rat DOCA-salt model assessed as decrease in urinary albumin excretion at 100 mg/kg, po measured on day 28 post last dose; format: functional, organism-based; design: dose 100 mg/kg; conditions: Urine
Cytochrome P450 2C19 = Cytochrome P450 2C19 (Homo sapiens, UniProt P33261); test: Inhibition of CYP2C19 in human liver microsomes after 10 mins by LC/MS/MS analysis; format: ADME
Cytochrome P450 2C19, sequence (P33261 whole entry): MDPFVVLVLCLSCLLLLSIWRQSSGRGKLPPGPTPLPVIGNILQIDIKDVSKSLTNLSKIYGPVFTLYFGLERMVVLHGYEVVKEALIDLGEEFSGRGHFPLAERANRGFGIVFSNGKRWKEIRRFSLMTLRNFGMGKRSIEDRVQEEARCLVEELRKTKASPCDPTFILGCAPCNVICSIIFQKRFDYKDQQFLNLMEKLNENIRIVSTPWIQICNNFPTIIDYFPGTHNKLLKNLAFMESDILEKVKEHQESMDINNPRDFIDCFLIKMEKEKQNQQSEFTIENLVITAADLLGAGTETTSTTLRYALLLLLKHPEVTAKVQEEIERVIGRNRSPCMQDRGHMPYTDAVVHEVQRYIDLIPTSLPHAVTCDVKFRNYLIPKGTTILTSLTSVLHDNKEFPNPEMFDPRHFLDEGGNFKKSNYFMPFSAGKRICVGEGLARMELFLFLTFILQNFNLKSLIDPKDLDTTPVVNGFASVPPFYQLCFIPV

Rattus norvegicus [11] = test: Ex vivo inhibition of soluble epoxide hydrolase in Sprague-Dawley rat whole blood assessed as inhibition of 14,15-DHET production at 100 mg/kg, po measured after 1 to 6 hrs by ELISA relative to vehicle-treated control; format: functional
Cytochrome P450 2C8 = biological target: T3, Cytochrome P450 2C8 (Homo sapiens, UniProt P10632); test: Inhibition of CYP2C8 in human liver microsomes after 10 mins by LC/MS/MS analysis; format: ADME
T3 sequence (P10632 whole entry): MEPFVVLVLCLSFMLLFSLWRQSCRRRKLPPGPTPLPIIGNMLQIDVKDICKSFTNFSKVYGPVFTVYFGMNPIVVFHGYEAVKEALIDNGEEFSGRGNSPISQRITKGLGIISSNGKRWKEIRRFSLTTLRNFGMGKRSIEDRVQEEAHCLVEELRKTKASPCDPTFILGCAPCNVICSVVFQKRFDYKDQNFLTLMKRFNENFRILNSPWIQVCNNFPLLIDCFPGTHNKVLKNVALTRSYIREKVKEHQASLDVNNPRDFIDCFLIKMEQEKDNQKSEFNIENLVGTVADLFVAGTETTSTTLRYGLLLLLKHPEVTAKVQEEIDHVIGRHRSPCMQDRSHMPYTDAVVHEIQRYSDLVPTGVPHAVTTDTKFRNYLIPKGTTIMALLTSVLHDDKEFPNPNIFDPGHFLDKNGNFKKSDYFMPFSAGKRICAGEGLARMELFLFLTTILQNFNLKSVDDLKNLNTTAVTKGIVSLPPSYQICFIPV

Rattus norvegicus [12] = test: Antihypertensive activity in Sprague-Dawley rat DOCA-salt model assessed as decrease in systolic blood pressure at 100 mg/kg, po measured on day 28 post last dose by tail-cuff method; format: functional, organism-based; design: dose 100 mg/kg; conditions: Artery
Rattus norvegicus [13] = test: AUC in Sprague-Dawley rat at 10 mg/kg, po; format: ADME, organism-based, Plasma; design: dose 10 mg/kg, route oral; conditions: in vivo

Structure (SMILES)	IC50 [1] [µM]	IC50 [3] [µM]	further results
O=C(O)Cc1ccc(OC2CCN(C(=O)N[C@H]3C[C@@H]3c3ccccc3)CC2)cc1 (relative stereo)	0.0432	0.0566	CLint (Liver microsome [2]): < 10 µL/min/mg; solubility at 1.5 h [4]: > 150 µg/mL; CLint (Liver microsome [5]): < 33 µL/min/mg
O=C(O)Cc1ccc(OC2CCN(C(=O)N[C@H]3C[C@@H]3c3ccccc3)CC2)c(Cl)c1 (racemic)	0.0043	0.0066	Activity (Rattus norvegicus [6]): Active; F (Rattus norvegicus [7]): 63%; CLint (Liver microsome [2]): < 10 µL/min/mg; inhibition (Rattus norvegicus [8]): Dose-dependent effect; Activity (Rattus norvegicus [9]): Non-toxic; Activity (Rattus norvegicus [10]): Active; IC50 (Cytochrome P450 2C19): > 50 µM; solubility at 1.5 h [4]: > 150 µg/mL; CLint (Liver microsome [5]): < 10 µL/min/mg; inhibition in vivo at 100 mg/kg (Rattus norvegicus [11]): < 20%; IC50 (Cytochrome P450 2C8): > 50 µM; Activity (Rattus norvegicus [12]): inactive; AUC (Rattus norvegicus [13]): 30400 ng·h/mL
O=C(N[C@H]1C[C@@H]1c1ccccc1)N1CCC(Oc2ccc(C(F)(F)F)cc2)CC1 (relative stereo)	0.0298	0.0089	–
O=C(N[C@H]1C[C@@H]1c1ccccc1)N1CCC(Oc2ccccc2)CC1 (racemic)	0.018	0.0183	–
O=C(N[C@H]1C[C@@H]1c1ccccc1)N1CCC(Oc2cccc(-c3ccccc3)c2)CC1 (racemic)	0.0107	0.0059	–
Cc1cccc(OC2CCN(C(=O)N[C@H]3C[C@@H]3c3ccccc3)CC2)c1 (racemic)	0.0089	0.0065	–
COc1ccccc1OC1CCN(C(=O)N[C@H]2C[C@@H]2c2ccccc2)CC1 (racemic)	0.0113	0.0128	–
O=C(O)c1ccc(OC2CCN(C(=O)N[C@H]3C[C@@H]3c3ccccc3)CC2)c(Cl)c1 (racemic)	0.0026	0.0041	F (Rattus norvegicus [7]): 31%; CLint (Liver microsome [2]): < 10 µL/min/mg; IC50 (Cytochrome P450 2C19): > 50 µM; solubility at 1.5 h [4]: > 150 µg/mL; CLint (Liver microsome [5]): < 10 µL/min/mg; IC50 (Cytochrome P450 2C8): > 50 µM; AUC (Rattus norvegicus [13]): 15900 ng·h/mL
O=C(N[C@H]1C[C@@H]1c1ccccc1)N1CCC(Oc2ccccc2-c2ccccc2)CC1 (racemic)	0.0147	0.0207	–
O=C(N[C@H]1C[C@@H]1c1ccccc1)N1CCC(Oc2ccncc2)CC1 (racemic)	0.0244	0.0123	–
Cc1ccccc1OC1CCN(C(=O)N[C@H]2C[C@@H]2c2ccccc2)CC1 (racemic)	0.0031	0.0042	solubility at 1.5 h [4]: < 0.2 µg/mL
O=C(N[C@H]1C[C@@H]1c1ccccc1)N1CCC(Oc2ccccc2Cl)CC1 (racemic)	0.002	0.0035	–
O=C(N[C@H]1C[C@@H]1c1ccccc1)N1CCC(Oc2cnccn2)CC1 (racemic)	0.0267	0.0256	–
O=C(N[C@H]1C[C@@H]1c1ccccc1)N1CCC(Oc2ccc(-c3ccccc3)cc2)CC1 (racemic)	0.012	0.0067	–
COc1ccc(OC2CCN(C(=O)N[C@H]3C[C@@H]3c3ccccc3)CC2)cc1 (racemic)	0.0102	0.005	–
O=C(N[C@H]1C[C@@H]1c1ccccc1)N1CCC(Oc2ccc(Cl)cc2)CC1 (racemic)	0.0224	0.0093	–
O=C(O)c1ccccc1OC1CCN(C(=O)N[C@H]2C[C@@H]2c2ccccc2)CC1 (racemic)	> 0.1	> 0.1	–
Cc1ccc(OC2CCN(C(=O)N[C@H]3C[C@@H]3c3ccccc3)CC2)cc1 (racemic)	0.0142	0.0068	–
O=C(N[C@H]1C[C@@H]1c1ccccc1)N1CCC(Oc2cccnc2)CC1 (racemic)	0.0252	0.0202	–
O=C(N[C@H]1C[C@@H]1c1ccccc1)N1CCC(Oc2ncccn2)CC1 (racemic)	0.0942	> 0.1	–
COc1cccc(OC2CCN(C(=O)N[C@H]3C[C@@H]3c3ccccc3)CC2)c1 (relative stereo)	0.0074	0.0051	–
O=C(N[C@H]1C[C@@H]1c1ccccc1)N1CCC(Oc2cccc(C(F)(F)F)c2)CC1 (racemic)	0.0158	0.0105	–
O=C(N[C@H]1C[C@@H]1c1ccccc1)N1CCC(Oc2ccc(-c3nnn[nH]3)cc2)CC1 (racemic)	0.0033	0.0066	CLint (Liver microsome [2]): < 10 µL/min/mg; solubility at 1.5 h [4]: > 150 µg/mL; CLint (Liver microsome [5]): < 33 µL/min/mg; IC50 (Cytochrome P450 2C8): 0.8 µM
O=C(N[C@H]1C[C@@H]1c1ccccc1)N1CCC(Oc2cccc(Cl)c2)CC1 (racemic)	0.012	0.008	–
O=C(O)c1ccc(OC2CCN(C(=O)N[C@H]3C[C@@H]3c3ccccc3)CC2)cc1 (racemic)	0.0303	0.0322	CLint (Liver microsome [2]): < 10 µL/min/mg; solubility at 1.5 h [4]: > 150 µg/mL; CLint (Liver microsome [5]): < 10 µL/min/mg
O=C(N[C@H]1C[C@@H]1c1ccccc1)N1CCC(Oc2ccccc2C(F)(F)F)CC1 (racemic)	0.0021	0.0032	–
O=C(N[C@H]1C[C@@H]1c1ccccc1)N1CCC(Oc2ccccn2)CC1 (racemic)	0.0274	0.0354	–
O=C(O)c1cccc(OC2CCN(C(=O)N[C@H]3C[C@@H]3c3ccccc3)CC2)c1 (racemic)	> 0.1	> 0.1	CLint (Liver microsome [2]): < 10 µL/min/mg; solubility at 1.5 h [4]: > 150 µg/mL; CLint (Liver microsome [5]): < 10 µL/min/mg
O=C(N[C@H]1C[C@@H]1c1ccccc1)N1CCC(OC(c2ccccc2)c2ccccc2)CC1 (racemic)	0.0271	0.0052	–
